Measurements reported in patent US5786165A, “Herbicide test method” (Agrevo UK Limited, priority 1994, dated 1998).

Tests used:
[1] = tested on: crude, desalted homogenates from pea seedlings; assay: Adenylate metabolism pathway in a crude plant homogenate; assay type: in vitro ADME, Peas (Pisum sativum L var Onward); details: without ATP, 10 minutes at 25° C.
Procedure: Peas (Pisum sativum L var Onward) were grown in soil for 10 days at 25° C. with a 16 hour/8 hour light/dark cycle. The seedlings were harvested close to soil level and a crude homogenate of was prepared by homogenization in 2 volumes of ice cold buffer containing tris-HCl (0.1M, pH 7.4 with 5M NaOH), 0.1 mM dithiothreitol and 0.4M sucrose using a Waring blender (1 minute, top speed). The homogenate was passed through 6 layers of muslin and 2.5 ml desalted on a sephadex (Registered Trade Mark) PD10 column (1.5 cm×8 cm) which had been pre-equilibrated with the homogenization buffer. Protein was eluted using the same buffer. The assay contained, in a total volume of 250 μl, 50 mM Tris-HCl (pH 6.5), 50 mM KCl, 0.05% (w/v) BSA and […] protein. ATP (5 mM) was also included where indicated. The assay was started by the addition of [^14 C] adenosine (500 μM, 0.2 μCi). After incubation at 25° C. for 10 minutes, the reaction was stopped by the addition of 0.25 ml ice cold HClO4 (0.4M). Precipitated protein was removed by centrifugation (13,000 g, 2 minutes) and 0.4 ml of the resulting supernatant applied to phenylsilane bonded silica gel columns (500 mg) which had been previously washed with 2 volumes of methanol and then 2 ml 0.4M HClO4. Samples were eluted with 4 ml 0.4M HClO4. The pH of the eluate was adjusted on ice to between 5.5 and 7.0 with 5M KOH. The neutralised extract was centrifuged (13,000 g, 2 minutes) and evaporated to dryness in a Gyrovap (Registered Trade Mark). The sample was then re-dissolved in 0.5 ml 10 mM HCl and centrifuged (13,000 g, 2 minutes) prior to HPLC analysis. The products were analysed using reverse phase chromatography with a spherisorb (Registered Trade Mark) column (25 cm×0.46 cm), solvent 1: 95:5 10 mM KH2 PO4 : methanol; solvent 2: 88:12 10 mM KH2 PO4 : methanol, pH 5.3, step change at 6 minutes, Flow rate: 1 ml/minute.

[2] = tested on: plant AMP deaminase; assay: Plant AMP deaminase inhibition assay; assay type: biochemical, Pea seedlings; details: for IC50: 10 minute preincubation, substrate concentration 640 μM, read-out: 50% inhibition of AMP deaminase activity
Procedure: (§1) Pea seedlings were excised near soil level, the stems quickly washed with distilled water and then stood upright in a […] containing 2 ml of compound solution or water (control). A section (approx 2 mm) was cut from the base of the stem while it was immersed to prevent air locks from forming in the xylem. The seedlings were incubated in the light at room temperature (approx 20° C.) in a moving air stream. At intervals, individual seedlings were extracted and the levels of AMP deaminase determined by extraction in 2 volumes ice cold citrate buffer (0.1M, pH 7), 0.5 mM dithiothreitol using a pestle and mortar. The homogenate was passed through 6 layers of muslin and loaded onto a sephadex gel filtration column (1.5 cm×8 cm) which had previously been equilibrated with 30 mM citrate (pH 7.1), 50 mM KCl and 0.5% (w/v) BSA (Assay buffer). The protein was eluted using the assay buffer and used directly for the enzyme assay. The assay is based on the release of ammonia (McCullough (1967), Clinica Chimica Acta, 17, 297) and contained in a total volume of 0.5 ml 60 mM citrate buffer (pH 7.1 with 5M NaOH) 100 mM KCl, 0.1% (w/v) BSA and 5 mM AMP. The reaction was started by the addition of 50 μl extract. At 15 minute intervals from 0 to 60 minutes, the reaction was stopped by the addition of 420 μl reagent 1 (0.1M phenol, 0.17 mM sodium nitroprusside) immediately followed by 275 μl reagent 2 (0.125M NaOH, 0.38M Na2 HPO4 and 5 ml HOCl in a total volume of 500 ml). Following incubation for 60 minutes at 55° C., the absorbance of the solutions at 625 nm was determined.
Pea seedlings were grown as described in Test Example 2. The seedlings were harvested close to soil level and homogenized in 2 volumes of ice cold phosphate buffer (pH 7.5) containing 0.1 mM dithiothreitol and 0.4M sucrose using a Waring blender (1 minute, top speed). All of the following operations were carried out at 4° C. The homogenate was filtered through 6 layers of muslin and centrifuged at 100,000 g for 20 minutes to remove cell debris. To the resulting supernatant was added 40% (w/v) ammonium sulphate while stirring constantly. The precipitate was collected by centrifugation (12,000 g, 15 minutes) and dissolved in 30 ml phosphate buffer (pH 7.5), 0.1 mM dithiothreitol then dialyzed overnight against 2 l of the same buffer. Insolubles formed during the overnight dialysis were removed by centrifugation (7,000 g, 10 minutes). The supernatant was applied to a phospho-cellulose column (1.5×8 cm) which had been pre-equilibrated with 0.1M phosphate buffer (pH 7.5). After loading, the column was washed with 14 ml phosphate buffer (0.1M, pH 7.5) and the enzyme eluted with 0.6M phosphate buffer (pH 7.5). Activity was determined using the ammonia release assay described in Test Example 3 above.

[3] = target: T1, calf intestinal mucosa adenosine deaminase (Bos taurus, UniProt P56658); assay: Mammalian adenosine deaminase inhibition assay; assay type: biochemical
T1 construct: calf intestinal mucosa adenosine deaminase; purchased Sigma Chemical Company Limited; host or cells: calf intestinal mucosa
T1 sequence (P56658 whole entry): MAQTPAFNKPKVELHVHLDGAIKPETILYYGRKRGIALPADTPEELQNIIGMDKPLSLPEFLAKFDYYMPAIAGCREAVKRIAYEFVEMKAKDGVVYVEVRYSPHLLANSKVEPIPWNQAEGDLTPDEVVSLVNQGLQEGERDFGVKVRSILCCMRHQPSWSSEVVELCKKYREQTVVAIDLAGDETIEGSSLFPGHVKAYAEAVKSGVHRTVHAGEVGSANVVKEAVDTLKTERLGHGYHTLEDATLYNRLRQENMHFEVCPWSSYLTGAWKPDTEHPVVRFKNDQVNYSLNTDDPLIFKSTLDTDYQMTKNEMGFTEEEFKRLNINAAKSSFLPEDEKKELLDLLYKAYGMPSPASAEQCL
Procedure: Mammalian Adenosine Deaminase Inhibition Assay
A suitable source of enzyme is calf intestinal mucosa adenosine deaminase supplied by the Sigma Chemical Company Limited. The assay employed follows the protocol provided by the supplier and measures a decrease in absorption at 265 nm as the substrate adenosine is utilized. A 10 minute preincubation of enzyme and inhibitor prior to addition of the substrate was employed.

[4] = tested on: AMP deaminase; assay: Extractable levels of AMP deaminase in treated pea seedlings; assay type: in vivo
Procedure: as §1, with “At 15 minute intervals from 0 to 60 minutes, the reaction was stopped by the addition of 420 μl reagent 1 (0.1M phenol, 0.17 mM sodium nitroprusside) immediately followed by 275 μl reagent 2 (0.125M NaOH, 0.38M Na2 HPO4 and 5 ml HOCl in a total volume of 500 ml).” left out

[5] = tested on: Pea seedlings; assay: In planta metabolism of carbocyclic coformycin; assay type: in vivo; details: 10 μM [3H] compound via the transpiration stream; 4 hours incubation
Procedure: Pea seedlings were grown as described in Test Example 2, harvested as described in Test Example 3 and then supplied with 10 μM (400 Ci mol^-1) [^3 H] carbocyclic coformycin via the transpiration stream. After incubation periods, pairs of seedlings were rapidly frozen in liquid nitrogen, ground to a fine powder and extracted in 2 ml ice cold 0.4M HClO4. The extracts were processed for HPLC analysis as described in Test Example 2 above except that the final sample was resuspended in 0.5 ml water instead of 10 mM HCl. [^3 H] carbocyclic coformycin and [^3 H] carbocyclic coformycin 5'-phosphate were separated using cation exchange chromatography with a Partisil (Registered Trade Mark) SCX column (8.0 cm×0.46 cm), 0.05M NH4 H2 PO4, pH 2.6; flow rate=2 ml/minute.

[6] = tested on: extractable ATP levels in pea seedlings; assay: Measurement of extractable ATP levels; assay type: in vivo, Peas
Procedure: Peas were grown as described in Test Example 1 and exposed to carbocyclic coformycin via the transpiration stream as outlined in Test Example 3. Individual seedlings were rapidly frozen in liquid nitrogen. The frozen tissue was ground to a fine powder using a pestle and mortar then 1 ml ice cold 0.4M HClO4 was added. The frozen acid was ground to a fine powder tissue, the mixture allowed to thaw and then incubated on ice for 15 minutes. The extract was centrifuged (4,000 rpm, 5 minutes).
ATP measurements were made using the luciferase assay and a LUMAC Biocounter M2500 (6370 AC Landgraaf, The Netherlands). Samples were diluted 1:10,000 in water and 100 μl was assayed according to the manufacturer's instructions.

Nc1ncnc2c1ncn2[C@@H]1O[C@H](CO)[C@@H](O)[C@H]1O [[^14 C adenosine, adenosine]
% of radiolabel as ADP [1]: 0% | % of radiolabel as AMP [1]: 0% | % of radiolabel as ATP [1]: 0% | % of radiolabel as IMP [1]: 0% | % of radiolabel as inosine [1]: 0% | % of radiolabel as adenosine ([1]; 500 µM): 100%

O=P(O)(O)OC[C@H]1C[C@@H](n2cnc3c2N=CNC[C@H]3O)[C@H](O)[C@@H]1O [carbocyclic coformycin 5'-phosphate]
inhibition of plant AMP deaminase (in words) [2]: potent inhibitor | IC50 [2]: 20 nM

OC[C@H]1C[C@@H](n2cnc3c2N=CNC[C@H]3O)[C@H](O)[C@@H]1O [carbocyclic coformycin]
inhibition of mammalian adenosine deaminase (in words) [3]: potent inhibitor | IC50 ([3]; 10 minute preincubation, substrate concentration 60 μM, read-out: 50% inhibition of adenosine deaminase): 25 nM | extractable levels of AMP deaminase (in words) ([4]; applied to pea seedlings via the transpiration stream): rapid decrease | extractable levels of AMP deaminase, % of the control levels ([4]; treatment for 1 hour via the transpiration stream, control 19 μmols ammonia release per gram fresh weight per minute): 20-30% | major metabolite in planta [5]: co-chromatographed with authentic carbocyclic coformycin 5'-phosphate | inhibition of plant AMP deaminase (in words) [2]: relatively poor inhibitor | IC50 [2]: 120000 nM | ATP levels relative to the control levels ([6]; 100 μM via the transpiration stream, 4 hours treatment, control 333 nmols ATP per gram fresh weight): approximately twice | rise in extractable levels of ATP (in words) ([6]; in vivo): remarkable rise
